Laboratory results: US9144595B2, “APLs for treating arthritis” (University of Tennessee Research Foundation, priority 2009, dated 2015)
Entries after “also recorded” stand apart in the source; their conditions may differ.

Assays:
RA PBMC [1] = assay: 27 cytokines multiplex assay of 48 h RA PBMC culture supernatants; assay type: cell-based, human; conditions: APL A12 10 μg/ml + α1(II) 50 μg/ml, 6 RA patients
Description: We assessed the ability of APL A12 added to cultures of PBMC to affect production of IFNγ and other Th1 and Th2 cytokines by the cultured PBMC stimulated with α1(II) from 18 RA patients, 16 of whom had known HLA DR B1 haplotypes. 16 of these patients were taking methothexate, 10 NSAIDS and 12 anti-TNF agents. One patient was taking Arava. Isolated PBMC were resuspended in Dulbecco's minimal essential medium containing penicillin (100 U/ml), streptomycin (100 μg/ml), 9% fetal calf serum (FCS), and non-essential amino acids thereafter referred to as “Complete Medium” at a concentration of 4×10^6 cells/ml. Aliquots (0.5 ml) of the cell suspension were dispensed into wells of 48 well tissue culture plates (NUNC, Roskilde, Denmark).

[2] = system: splenocytes of DR1 transgenic mice; assay: Oral APL A12: IFNγ production by cultured splenocytes of DR1 transgenic mice; assay type: in vivo, mouse
[3] = system: Peyer's Patch cells of DR1 TCRtg+/+ mice; assay: Oral APL A12: IL-17 and IL-10 in cultures of Peyer's Patch cells of DR1 TCRtg+/+ mice; assay type: in vivo, mouse
RA PBMC [4] = assay: Stability of HC Peptide 1 stored at 4° C., tested on IFNγ production by RA PBMC; assay type: cell-based, human
Description: Approximately 70% of the patients screened should have one or more of the RA shared epitope alleles. If the trend we saw in the small preliminary data sample holds true for the larger sample size, the majority of APL A12 responders will have one or more of the shared epitopes. […] Each month we will prepare a fresh stock solution of APL A12 dissolved in PBS, filter sterilized and stored at 4° C. APL A12 stored at 4° C. in solution retains it biologic activity for >30 days. A fresh solution of α1(II) will also be prepared each month and stored at 4° C. and handled using sterile technique.
HC Peptide 1 was dissolved in phosphate buffered saline and stored at 4° C. for up to five months and then tested and compared in vitro with freshly prepared HC Peptide 1 to inhibit IFNγ production by RA patients PBMC stimulated by α1(II).

[5] = system: Spleen tyrosine kinase (Syk); assay: Syk phosphorylation in CD4+ T cells of DR1/TCR transgenic mice (flow cytometry); assay type: cell-based, mouse; conditions: APCs prepulsed with peptide, compared with media controls
From the text: Since T cells clearly responded to A12 differently than to the wild type A2 peptide, we analyzed them for the possibility that they might be utilizing an alternative signaling pathway. Spleen tyrosine kinase (Syk), a kinase ordinarily utilized by B cells was selected for further analysis. In these experiments, CD4^+ T-cells from the DR1/TCR transgenic mice were purified by negative selection (using a Miltenyi kit) and stained with an antibody specific for phospho Syk following exposure to APCs prepulsed with either A2 or A12. […] Histograms were generated using flow cytometry with gating specifically on the CD4^+ population, confirming that the changes observed were produced by T-cells.
FIGS. 5A and 5B show T cell signaling induced by A2 and A12. Flow cytometry was performed using purified CD4+ T cells from spleens of DR1 TCR Tg mice. The T cells were stimulated by APCs pre-pulsed with A2, A12 or no peptide (Control) for 5 minutes. The cells were then fixed, permeabilized, and stained with an antibody specific for phospho-Syk (Tyr 323) (left panel) or phospho-ERK 1/2 (right panel) and analyzed by flow cytometry. Both plots are gated on CD4 T cells. Axes 510, 540, show the number of events and axes 515, 545 show a logarithmic scale for Anti-phospho Erk and Syk respectively, for FIGS. 5A and 5B. In FIG. 5A line 520 is for A2 peptide, line 525 is the control, and line 530 is the A12 peptide. […]

Zap-70 = Zap-70 phosphorylation in CD4+ T cells of DR1/TCR transgenic mice (flow cytometry); assay type: cell-based, mouse; conditions: APCs prepulsed with peptide; data not shown
FcεRIγ = FcεRIγ expression in DR1 TCR tg cells; assay type: cell-based, mouse; conditions: DR1 TCR tg cells cultured with peptide 48 hours; FIG. 6
Description: In FIG. 6 it is shown that A12 treatment increases […] expression. In the graph with axis 610 for the percentage of the maximum, axis 615 for the number of occurrences on a log scale, line 620 is for A2, line 625 is for media alone, and line 630 is for A12. Splenocytes from DR1 TCR transgenic mice were cultured for 48 hours in the presence of A12 (dark grey line), A2 (black line) or media alone (light grey line). […] The cells cultured with A2 peptide are no different than unstimulated controls.
Finally, we examined the expression of FcεRIγ, a molecule known to associate with the TCR complex. In some circumstances, the TCR is rewired so that the FcRgamma chain assumes the function of the zeta chain. Therefore, the DR1 TCR tg cells were cultured with either A12, or A2, or media alone and stained with an antibody specific for the gamma chain of the FcεRIγ molecule.

DR1 Transgenic mice = assay: Acute toxicity study of HC Peptide 1 in DR1 transgenic mice; assay type: in vivo, mouse
[6] = mice gavaged with 50 μg APL A12 9 times over 2 weeks, cells cultured with PBS
[7] = mice gavaged with 50 μg APL A12, cells cultured with APL A12 50 μg/ml
[8] = mice gavaged with 50 μg APL A12, cells cultured with CII263-270 50 μg/ml
[9] = mice gavaged with PBS, cells cultured with APL A12 50 μg/ml

LGPKGQTGEBGIAGAKGDQGPKGEBGPA [APL A12]
IL-1ra (RA PBMC [1]): 2013 ± 220 pg/mL
IL-2 (RA PBMC [1]): 6 ± 0.9 pg/mL
IL-10 (RA PBMC [1]): 555 ± 104 pg/mL
IP-10 (RA PBMC [1]): 114 ± 91 pg/mL
PDGF-bb (RA PBMC [1]): 39 ± 25 pg/mL
RANTES (RA PBMC [1]): 750 ± 183 pg/mL
TNFα (RA PBMC [1]): 84 ± 17 pg/mL
IFNγ Levels in Splenocyte Culture ([2]; mice gavaged with 50 μg APL A12 8 times over 2 weeks, splenocytes cultured with PBS): 2 ± 3 pg/mL
IFNγ Levels in Splenocyte Culture ([2]; mice gavaged with 50 μg APL A12, splenocytes cultured with APL A12 50 μg/ml): 5 ± 10 pg/mL
IFNγ Levels in Splenocyte Culture ([2]; mice gavaged with 50 μg APL A12, splenocytes cultured with CII263-270 50 μg/ml): 12 ± 20 pg/mL
IFNγ Levels in Splenocyte Culture ([2]; mice gavaged with PBS, splenocytes cultured with APL A12 50 μg/ml): 65 ± 52 pg/mL
II-10 Levels in Peyer's Patch Cultures [3, 6]: 116 pg/mL
IL-17 Levels in Peyer's Patch Cultures [3, 6]: 2.4 pg/mL
II-10 Levels in Peyer's Patch Cultures [3, 7]: 105 pg/mL
IL-17 Levels in Peyer's Patch Cultures [3, 7]: 1.8 pg/mL
II-10 Levels in Peyer's Patch Cultures [3, 8]: 94 pg/mL
IL-17 Levels in Peyer's Patch Cultures [3, 8]: 2.4 pg/mL
II-10 Levels in Peyer's Patch Cultures [3, 9]: 27 pg/mL
IL-17 Levels in Peyer's Patch Cultures [3, 9]: 16 pg/mL
IFNγ Concentration in PBMC Supernatants (RA PBMC [4]; A12 0.1 μg/ml + PBS, A12 stored at 4° C. 6 Days): 26 pg/mL
IFNγ Concentration in PBMC Supernatants (RA PBMC [4]; A12 0.1 μg/ml + PBS, A12 stored at 4° C. 78 Days): 0 pg/mL
IFNγ Concentration in PBMC Supernatants (RA PBMC [4]; A12 0.1 μg/ml + PBS, A12 stored at 4° C. 143 Days): 0 pg/mL
IFNγ Concentration in PBMC Supernatants (RA PBMC [4]; A12 0.1 μg/ml + α1(II) 50 μg/ml, A12 stored at 4° C. 6 Days): 45 pg/mL
IFNγ Concentration in PBMC Supernatants (RA PBMC [4]; A12 0.1 μg/ml + α1(II) 50 μg/ml, A12 stored at 4° C. 78 Days): 10 pg/mL
IFNγ Concentration in PBMC Supernatants (RA PBMC [4]; A12 0.1 μg/ml + α1(II) 50 μg/ml, A12 stored at 4° C. 143 Days): 22 pg/mL
IFNγ Concentration in PBMC Supernatants (RA PBMC [4]; A12 1 μg/ml + PBS, A12 stored at 4° C. 6 Days): 10 pg/mL
IFNγ Concentration in PBMC Supernatants (RA PBMC [4]; A12 1 μg/ml + PBS, A12 stored at 4° C. 78 Days): 0 pg/mL
IFNγ Concentration in PBMC Supernatants (RA PBMC [4]; A12 1 μg/ml + PBS, A12 stored at 4° C. 143 Days): 0 pg/mL
IFNγ Concentration in PBMC Supernatants (RA PBMC [4]; A12 1 μg/ml + α1(II) 50 μg/ml, A12 stored at 4° C. 6 Days): 23 pg/mL
IFNγ Concentration in PBMC Supernatants (RA PBMC [4]; A12 1 μg/ml + α1(II) 50 μg/ml, A12 stored at 4° C. 78 Days): 37 pg/mL
IFNγ Concentration in PBMC Supernatants (RA PBMC [4]; A12 1 μg/ml + α1(II) 50 μg/ml, A12 stored at 4° C. 143 Days): 6 pg/mL
IFNγ Concentration in PBMC Supernatants (RA PBMC [4]; A12 10 μg/ml + PBS, A12 stored at 4° C. 6 Days): 0 pg/mL
IFNγ Concentration in PBMC Supernatants (RA PBMC [4]; A12 10 μg/ml + PBS, A12 stored at 4° C. 78 Days): 0 pg/mL
IFNγ Concentration in PBMC Supernatants (RA PBMC [4]; A12 10 μg/ml + PBS, A12 stored at 4° C. 143 Days): 0 pg/mL
IFNγ Concentration in PBMC Supernatants (RA PBMC [4]; A12 10 μg/ml + α1(II) 50 μg/ml, A12 stored at 4° C. 6 Days): 77 pg/mL
IFNγ Concentration in PBMC Supernatants (RA PBMC [4]; A12 10 μg/ml + α1(II) 50 μg/ml, A12 stored at 4° C. 78 Days): 82 pg/mL
IFNγ Concentration in PBMC Supernatants (RA PBMC [4]; A12 10 μg/ml + α1(II) 50 μg/ml, A12 stored at 4° C. 143 Days): 21 pg/mL
stability: ability to inhibit IFNγ production by α1(II) stimulated RA PBMC after storage (RA PBMC [4]; dissolved in phosphate buffered saline, stored at 4° C. for up to 5 months): retained its ability to inhibit IFNγ production
time for which biologic activity is retained (RA PBMC [4]; stored at 4° C. in solution (PBS)): > 30 days
Syk phosphorylation [5]: induced significant Syk phosphorylation
Zap-70 phosphorylation (Zap-70): little effect
FcR gamma chain (FcεRIγ) expression (FcεRIγ): significant increase
complete blood counts (CBC) (DR1 Transgenic mice; after 6 days gavage with 100× the human dose vs IV saline): similar
Histologic assessment of internal organs (livers, spleens, kidneys, hearts, lungs) (DR1 Transgenic mice; gavaged for six days with 100× human dose vs IV saline, listed as HC Peptide 1): no difference; also recorded: did not reveal abnormalities
clinical signs of illness, changes in complete blood counts or liver and renal chemistries (DR1 Transgenic mice; oral, 100× the proposed human dose daily for six days): not associated
Changes in body weight (DR1 Transgenic mice; over the six days gavaged with 100× the human dose, vs IV saline): similar
